Reference: patent US20250214969A1, “PROTEIN DEGRADERS AND USES THEREOF” (Kymera Therapeutics, Inc., priority 2022, published 2025)

Assays:
[1] = biological target: T1, truncated His-MBP-Tev-KLHDC2 (residues 1-363) (Homo sapiens, UniProt Q9Y2U9); assay: KLHDC2 HTRF binding assay; conditions: 1 nM KLHDC2 (residues 1-363), fluorescein-labeled diglycine peptide probe
T1 construct: truncated His -MBP-Tev-KLHDC2 (residues 1-363) purified from E. coli; made in house; host or cells: E. coli
T1 sequence (Q9Y2U9 1-363): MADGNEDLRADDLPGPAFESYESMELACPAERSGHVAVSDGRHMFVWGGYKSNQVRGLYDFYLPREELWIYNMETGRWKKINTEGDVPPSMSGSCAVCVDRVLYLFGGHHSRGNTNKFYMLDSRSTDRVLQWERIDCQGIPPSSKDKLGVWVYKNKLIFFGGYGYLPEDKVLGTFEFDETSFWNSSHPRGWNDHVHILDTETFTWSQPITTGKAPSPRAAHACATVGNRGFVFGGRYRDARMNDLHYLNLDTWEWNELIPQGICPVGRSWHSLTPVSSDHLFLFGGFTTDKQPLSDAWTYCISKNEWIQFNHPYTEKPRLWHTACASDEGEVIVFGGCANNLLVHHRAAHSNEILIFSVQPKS

[2] = biological target: T1, truncated His-MBP-Tev-KLHDC2 (residues 1-363); assay: KLHDC2 FP competition binding assay; conditions: 15 nM KLHDC2 (residues 1-363), 10 nM fluorescein-labeled diglycine peptide probe, read-out: KLHDC2 binding Human FP: average external IC50

SMILES | IC50 [1] [µM] | IC50 [2] [µM]
O=C(O)Cn1cc(NC(=O)c2cccc(-c3cccnc3)c2)ccc1=O [I-281] | 0.5 to 5 | 0.5 to 5
O=C(O)Cn1cc(NC(=O)CC2Cc3ccc(Cl)cc3C2=O)ccc1=O (centres unmarked) [I-235] | > 5 | > 5
CCc1ccc(C(=O)Nc2ccc(=O)n(CC(=O)O)c2)cc1-c1ccccc1 [I-182] | 0.5 to 5 | > 5
O=C(O)Cn1cc(NC(=O)[C@H]2CCN(c3cccnc3)C2)ccc1=O [I-48] | 0.5 to 5 | > 5
O=C(O)Cn1cc(NC(=O)[C@H]2CCCN(c3cccnc3)CC2)ccc1=O [I-28] | 0.5 to 5 | > 5
O=C(O)Cn1cc(NC(=O)c2cccc(-c3cncc4ccccc34)c2)ccc1=O [I-131] | < 0.05 | 0.5 to 5
NCCCCCCc1cncc(-c2cccc(C(=O)Nc3ccc(=O)n(CC(=O)O)c3)c2)c1 [I-167] | 0.05 to 0.5 | 0.5 to 5
O=C(O)Cn1cc(NC(=O)COc2cccnc2)ccc1=O [I-250] | > 5 | > 5
Cc1sc2c(c1C)C(c1ccc(Cl)cc1)=N[C@@H](CC(=O)NCCCCCCc1cncc(-c3cccc(C(=O)Nc4ccc(=O)n(CC(=O)O)c4)c3)c1)c1nnc(C)n1-2 [I-477] | < 0.05 | < 0.05
O=C(O)Cn1cc(NC(=O)c2cccc(-c3cccnc3)c2)c(C2CC2)cc1=O [I-62] | 0.5 to 5 | > 5
O=C(O)Cn1cc(N2C[C@@]3(CCCN(c4cccnc4)C3)CC2=O)ccc1=O [I-17] | > 5 | > 5
COc1cc(-c2ccccc2)ccc1C(=O)Nc1ccc(=O)n(CC(=O)O)c1 [I-203] | 0.5 to 5 | 0.5 to 5
CCc1cncc(N2CCC[C@H](C(=O)Nc3ccc(Cl)c(CC(=O)O)c3)C2)c1 [I-21] | 0.05 to 0.5 | 0.5 to 5
COc1ccccc1OCC(=O)Nc1ccc(=O)n(CC(=O)O)c1 [I-273] | > 5 | > 5
Cc1ccccc1OCC(=O)Nc1ccc(=O)n(CC(=O)O)c1 [I-266] | > 5 | > 5
NC(=O)Cn1cc(NC(=O)c2cccc(-c3cccnc3)c2)ccc1=O [I-123] | > 5 | > 5
O=C(O)Cn1cc(Nc2ncc(-c3cccnc3)c3ccccc23)ccc1=O [I-56] | 0.5 to 5 | > 5
CC(C)(C)OC(=O)NCCCCCCc1ccncc1-c1cccc(C(=O)Nc2ccc(=O)n(CC(=O)O)c2)c1 [I-164] | 0.05 to 0.5 | 0.5 to 5
O=C(O)Cn1cc(NC(=O)[C@H]2C[C@H](C(F)(F)F)CN(c3cccnc3)C2)ccc1=O [I-64] | 0.05 to 0.5 | 0.5 to 5
CCN1C(=O)CCC(C(=O)O)C1c1cnn(C)c1 (centres unmarked) [I-217] | > 5 | > 5
CCOC(=O)Cn1cc(NC(=O)c2cccc(-c3cnccc3CCCCCCNC(=O)OC(C)(C)C)c2)ccc1=O [I-156] | > 5 | > 5
O=C(O)Cn1cc(N2CCc3ccc(-c4cccnc4)cc3C2=O)ccc1=O [I-89] | 0.05 to 0.5 | 0.5 to 5

SMILES | IC50 [1] [µM] | IC50 [2] [µM]
O=C(O)Cc1cc(NC(=O)[C@@H]2CCCN(c3cccnc3)C2)ccc1F [I-27] | > 5 | > 5
Cc1ccc(C(=O)Nc2ccc(=O)n(CC(=O)O)c2)nc1-c1cccnc1 [I-170] | 0.5 to 5 | > 5
O=C(O)Cn1cc(NC(=O)c2cccc(-c3cccnc3)n2)ccc1=O [I-141] | 0.5 to 5 | > 5
CCOC(=O)Cn1cc(NC(=O)c2ccc(CCCCCCNC(=O)OC(C)(C)C)c(-c3cccnc3)c2)ccc1=O [I-150] | > 5 | > 5
O=C(O)Cn1cc(NC(=O)c2cccc(-c3ccc(F)cc3)c2)ccc1=O [I-276] | 0.5 to 5 | > 5
O=C(O)CN1C(=O)Cc2ccccc21 [I-224] | > 5 | > 5
NC(=O)c1ccc(CN2C(=O)CCC2C(=O)O)cc1 (centres unmarked) [I-222] | > 5 | > 5
O=C(O)Cn1cc(N2CC[C@]3(CCN(c4cccnc4)C3)C2=O)ccc1=O [I-1] | > 5 | > 5
O=C(O)Cn1cc(NC(=O)c2cccc(-c3cccnc3)c2)c(Cl)cc1=O [I-97] | 0.05 to 0.5 | 0.5 to 5
O=C(O)Cn1cc(NC(=O)c2cccc(-c3ccc(C(F)(F)F)cc3)c2)ccc1=O [I-199] | > 5 | > 5
O=C(O)CCN1C(=O)CCc2ccccc21 [I-229] | > 5 | > 5
O=C(O)Cn1cc(NC(=O)COc2cccc(C(F)(F)F)c2)ccc1=O [I-252] | > 5 | > 5
CCOC(=O)Cn1cc(NC(=O)c2cc(CCCCCCNC(=O)OC(C)(C)C)cc(-c3cccnc3)c2)ccc1=O [I-162] | > 5 | > 5
CCc1ccc(C(=O)Nc2ccc(=O)n(CC(=O)O)c2)cc1-c1cccnc1 [I-181] | 0.5 to 5 | > 5
O=C(O)Cn1cc(NC(=O)[C@@H]2CCN(c3cccnc3)C2)ccc1=O [I-49] | > 5 | > 5
O=C(O)Cn1cc(NC(=O)c2cccc(-c3cccnc3)c2C(F)(F)F)ccc1=O [I-10] | 0.5 to 5 | > 5
O=C(O)Cn1cc(NC(=O)c2nccc(-c3cccnc3)n2)ccc1=O [I-85] | 0.5 to 5 | 0.5 to 5
O=C(O)Cn1cc(Nc2nccc3c(-c4cccnc4)cccc23)ccc1=O [I-93] | > 5 | > 5
Cn1cc(N2CC(C(=O)O)CC2=O)cn1 (centres unmarked) [I-226] | > 5 | > 5
O=C(O)Cn1cc(NC(=O)c2cccc(C3CCC3)c2)ccc1=O [I-240] | > 5 | > 5
CC(C)Cn1ccc2c(C(=O)Nc3ccc(=O)n(CC(=O)O)c3)cccc21 [I-238] | 0.05 to 0.5 | > 5

More lines, now with the values ahead:

IC50 [1] [µM] | IC50 [2] [µM] | SMILES
> 5 | > 5 | CC(C)=Cc1cccc(-c2ccc(=O)n(CC(=O)O)c2)c1 [I-331]
> 5 | > 5 | CCc1ccc(C)c(-c2ccc(=O)n(CC(=O)O)c2)c1 [I-340]
> 5 | > 5 | O=C(O)Cn1cc(NC(=O)COc2ccccc2Cl)ccc1=O [I-282]
> 5 | > 5 | O=C(O)Cn1cc(-c2cncc(OCc3ccccc3)c2)ccc1=O [I-301]
> 5 | > 5 | COc1ccc(-c2cc(C)ccc2C)cc1CC(=O)O [I-354]
> 5 | > 5 | Cc1cc(-c2ccc(=O)n(CC(=O)O)c2)c(C)cc1O [I-360]
> 5 | > 5 | O=C(O)Cn1cc(-c2cncc(CCc3ccccc3)c2)ccc1=O [I-285]
> 5 | > 5 | O=C(O)Cn1cc(-c2cccc(/C=C/c3ccccc3)c2)ccc1=O [I-296]
> 5 | > 5 | NC(=O)Cc1ccc(-c2ccc(=O)n(CC(=O)O)c2)cc1 [I-313]
> 5 | > 5 | O=C(O)Cn1cc(-c2ccc(F)cc2F)ccc1=O [I-370]
> 5 | > 5 | CN(C)C(=O)c1ccc(-c2ccc(=O)n(CC(=O)O)c2)cc1F [I-384]
> 5 | > 5 | O=C(O)Cn1cc(NS(=O)(=O)c2ccccc2)ccc1=O [I-317]
> 5 | > 5 | COc1cc(C)c(-c2ccc(=O)n(CC(=O)O)c2)cc1C [I-359]
> 5 | > 5 | Cc1cccc(C)c1-c1ccc(=O)n(CC(=O)O)c1 [I-404]
> 5 | > 5 | COc1cc(-c2ccc(=O)n(CC(=O)O)c2)ccn1 [I-378]
> 5 | > 5 | Cc1ccc(F)c(-c2ccc(=O)n(CC(=O)O)c2)c1 [I-343]
0.5 to 5 | > 5 | O=C(O)Cn1cc(NC(=O)c2ccc(-c3ccccc3)c(F)c2)ccc1=O [I-311]
> 5 | > 5 | Cn1ccc2c(-c3ccc(=O)n(CC(=O)O)c3)cccc21 [I-333]
> 5 | > 5 | Cc1ccc(CC(C)(C)O)cc1-c1ccc(=O)n(CC(=O)O)c1 [I-308]
> 5 | > 5 | Cc1ccc(Cl)c(-c2ccc(=O)n(CC(=O)O)c2)c1 [I-342]
> 5 | > 5 | CN(C)C(=O)c1ccc(-c2ccc(=O)n(CC(=O)O)c2)cc1 [I-393]
> 5 | > 5 | O=C(O)Cn1cc(NC(=O)c2cccc(-c3ccccc3F)c2)ccc1=O [I-288]
> 5 | > 5 | O=C(O)Cn1cc(-c2cccs2)ccc1=O [I-424]
> 5 | > 5 | O=C(O)Cn1cc(-c2cc(F)cc(F)c2)ccc1=O [I-371]
> 5 | > 5 | Cc1cc(C)c(-c2ccc(=O)n(CC(=O)O)c2)cc1C [I-356]
> 5 | > 5 | O=C(O)Cn1cc(-c2ccccc2F)ccc1=O [I-395]
> 5 | > 5 | O=C(O)Cn1cc(N2CCCCC2)ccc1=O [I-357]
> 5 | > 5 | Cc1ccc(C#N)c(-c2ccc(=O)n(CC(=O)O)c2)c1 [I-364]
> 5 | > 5 | O=C(O)Cn1cc(NC(=O)c2ccccc2C(F)F)ccc1=O [I-321]
> 5 | > 5 | O=C(O)Cn1cc(-c2cccc(CN3CCOCC3)c2)ccc1=O [I-304]
